Consider 1 compound from ChEMBL document CHEMBL4041544, “Discovery of new selective glucocorticoid receptor agonist leads” (Bioorg Med Chem Lett, 2017).

Series [1] addresses T1, Mineralocorticoid receptor (Homo sapiens, UniProt P08235).
T1 sequence (P08235 whole entry): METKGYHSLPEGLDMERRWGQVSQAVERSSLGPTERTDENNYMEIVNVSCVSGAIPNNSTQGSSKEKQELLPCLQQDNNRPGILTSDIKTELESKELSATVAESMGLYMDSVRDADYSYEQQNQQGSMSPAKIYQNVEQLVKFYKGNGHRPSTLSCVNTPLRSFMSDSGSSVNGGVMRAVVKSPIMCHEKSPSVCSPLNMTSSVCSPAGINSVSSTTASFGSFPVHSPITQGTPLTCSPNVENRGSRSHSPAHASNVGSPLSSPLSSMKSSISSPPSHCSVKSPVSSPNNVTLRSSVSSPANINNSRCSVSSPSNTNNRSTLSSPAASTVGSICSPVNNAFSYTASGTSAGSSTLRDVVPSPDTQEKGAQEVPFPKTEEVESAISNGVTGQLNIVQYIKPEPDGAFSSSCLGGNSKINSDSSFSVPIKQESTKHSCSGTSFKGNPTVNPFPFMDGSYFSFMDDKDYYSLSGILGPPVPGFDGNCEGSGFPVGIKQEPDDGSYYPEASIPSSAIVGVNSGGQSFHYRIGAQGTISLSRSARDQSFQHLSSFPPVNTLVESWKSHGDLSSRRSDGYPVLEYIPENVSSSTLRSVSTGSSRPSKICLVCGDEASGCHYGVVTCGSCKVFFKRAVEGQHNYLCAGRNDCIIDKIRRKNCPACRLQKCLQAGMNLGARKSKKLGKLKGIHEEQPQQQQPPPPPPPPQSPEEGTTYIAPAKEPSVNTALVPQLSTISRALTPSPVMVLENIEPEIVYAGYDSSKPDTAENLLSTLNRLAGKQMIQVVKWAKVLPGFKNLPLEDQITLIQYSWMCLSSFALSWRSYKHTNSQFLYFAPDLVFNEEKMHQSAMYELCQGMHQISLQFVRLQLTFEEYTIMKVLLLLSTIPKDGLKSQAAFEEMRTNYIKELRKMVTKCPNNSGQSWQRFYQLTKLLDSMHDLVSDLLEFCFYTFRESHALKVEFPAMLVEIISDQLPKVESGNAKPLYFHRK
Put plainly: Binding affinity to recombinant human mineralocorticoid receptor expressed in baculovirus infected sf9 cells.

Series [2] is described as follows: Volume of distribution at steady state in rat at 1.25 mg/kg, iv administered as bolus dose. The class given is ADME, organism-based. The settings on record: in vivo, read-out: Vdss.
Series [3] concerns the target T2, Glucocorticoid receptor (Homo sapiens, UniProt P04150).
T2 sequence (P04150 whole entry): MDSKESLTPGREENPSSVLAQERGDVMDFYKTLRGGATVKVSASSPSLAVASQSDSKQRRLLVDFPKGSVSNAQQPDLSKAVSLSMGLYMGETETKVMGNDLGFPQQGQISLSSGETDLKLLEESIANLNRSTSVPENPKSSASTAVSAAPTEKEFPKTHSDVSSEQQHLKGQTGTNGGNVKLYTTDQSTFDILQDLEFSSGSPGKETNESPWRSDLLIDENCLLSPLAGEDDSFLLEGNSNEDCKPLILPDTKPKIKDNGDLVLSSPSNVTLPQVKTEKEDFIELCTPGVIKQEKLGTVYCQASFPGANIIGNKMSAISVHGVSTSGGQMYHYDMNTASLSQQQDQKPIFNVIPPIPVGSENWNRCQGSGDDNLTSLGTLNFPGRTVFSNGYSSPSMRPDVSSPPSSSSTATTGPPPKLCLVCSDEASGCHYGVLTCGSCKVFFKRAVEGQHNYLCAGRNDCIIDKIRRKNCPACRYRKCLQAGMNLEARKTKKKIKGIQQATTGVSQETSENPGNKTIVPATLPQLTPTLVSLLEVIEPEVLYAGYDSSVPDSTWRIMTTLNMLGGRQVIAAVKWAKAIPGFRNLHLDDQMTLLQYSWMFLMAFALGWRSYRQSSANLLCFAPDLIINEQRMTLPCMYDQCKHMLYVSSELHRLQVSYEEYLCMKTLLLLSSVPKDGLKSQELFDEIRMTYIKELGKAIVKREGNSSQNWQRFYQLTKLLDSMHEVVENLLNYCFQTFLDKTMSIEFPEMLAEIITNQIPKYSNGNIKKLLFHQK
In words: Transactivation activity at glucocorticoid receptor in human HeLa cells assessed as induction of MMTV promoter activity by luciferase reporter gene assay. The class given is cell-based. (In general: Reporter assays use an easily measured gene product as a stand-in for the process of interest.)

For series [4], the system named is Rattus norvegicus. Put plainly: Anti-inflammatory activity in Wistar rat assessed as inhibition of croton oil-induced ear edema at 30 mg/kg, po relative to control. It counts as functional.
Series [5] in a line: Thermodynamic solubility of the compound in 0.1 M phosphate buffer at pH 7.4 at 25 degC. The class given is physicochemical. The conditions noted are these: read-out: Therm_solubility.
A short description of series [6]: Half life in rat at 1.25 mg/kg, iv administered as bolus dose. The class given is ADME, organism-based. The conditions noted are these: in vivo.
For series [7], the system named is Rattus norvegicus. Put plainly: Anti-inflammatory activity in po dosed Wistar rat assessed as inhibition of croton oil-induced ear edema. It counts as functional.
Series [8] has as its target T2, Glucocorticoid receptor. Put plainly: Transrepression activity at glucocorticoid receptor in human THP1 cells assessed as receptor-mediated anti-inflammatory activity by measuring inhibition of LPS-induced IL-8 production. It counts as cell-based.
Series [9] in a line: Stability in human liver microsomes assessed as drug recovery after 30 mins. It counts as ADME, microsome. The settings on record: read-out: Drug recovery.
Series [10] is described as follows: Blood clearance in rat at 1.25 mg/kg, iv administered as bolus dose. The class given is ADME, organism-based. The conditions noted are these: whole blood.

In brackets after ≈: the same amount, converted by molar mass.

What is called IC50 is the concentration that gives 50% inhibition. One may read the pEC50 as −log10 of the EC50, conventionally taken in molar units. As usually defined, the half-life is how long it takes for the measured level to halve. A higher half-life goes with slow decline. As a reminder, the ED50 is the dose at which the effect has come halfway, by size or by number of responders. As usually defined, the clearance is a measure of how efficiently the substance is removed, as volume per time. A low value points to a low capacity for elimination. Consider `CC[C@@H]1C[C@](O)(C(F)(F)F)[C@@H](Nc2cc(F)cc3nc(C)ncc23)c2ccc(F)c(O)c21`, for which the 50% inhibitory concentration (IC50) in series [1] is more than 1000 nM; at Glucocorticoid receptor [8], 6.31 nM. The Vd in series [2] came out at 11 L/kg. Moreover, the pEC50 at Glucocorticoid receptor [3] came out at 7.6. Moreover, the Imax in the series on Rattus norvegicus [4] turned out to be 124%. In series [5], the solubility thermodynamic is 26 µg/mL (≈ 57.3 µM). For the same compound, in series [6], the half-life was 5.8 h. For the same compound, in the series on Rattus norvegicus [7], the ED50 is 1.4 mg/kg. Besides, the remaining at 0.5 h in series [9] stood at 98%. Besides, in series [10], the clearance was 26.7 mL/min/kg.
